# Patent US20250177285A1, “BANANA STEM SAP COMPOSITIONS AND METHODS OF USE THEREOF” (Tano Pharmaceuticals Inc., priority 2023, published 2025)
# Marks after values point to notes of the source that are not given here. Residues, ends and D or L forms follow the SMILES beside them.
# Tests used:
# elastase = target: T1, elastase (Sus scrofa, UniProt P00772); test: Elastase activity assay; type: biochemical, human
# T1 construct: purchased Promega V1891
# Method: (§1) Test Materials. Test materials (Table 8) were stored at +4° C. and were diluted in distilled sterile water immediately before testing. All experimental conditions were tested in biological triplicates.
# Elastase activity assay. The reaction was initiated by adding 10 μl of 20 μg/ml elastase enzyme (Promega, cat. #V1891, lot #409147) to the assay mixture [10 mM Tris-HCl pH 7.5+/−0.5, 1 mg/ml elastase substrate VIII (Suc-Ala-Ala-Ala-pNA)] containing different experimental conditions, and the reaction kinetics were monitored at room temperature by measuring absorbance at 405 nm in the SpectraMax i3x microplate reader. Sterile distilled water was the negative, and EI III (Calbiochem cat. #324745) was the positive control. […]. Colorimetric readings were adjusted by subtracting the absorbance in wells containing the same experimental conditions but without elastase and were expressed as % of water control.
# (§2) Statistical analysis. Statistical significance threshold was established as minimum 20% modulation and p value <0.05 as determined by two-tailed Student test.
# [1] = test system: type I collagen output by normal human neonatal dermal fibroblasts; test: Type I collagen output, sandwich ELISA of conditioned medium; type: cell-based; conditions: for effect on type I collagen (in words): tested range
# Method: (§3) Test materials. Test materials (Table 2) were stored at +4° C. and were diluted in distilled sterile water immediately before testing. Cells & experimental procedures. Normal dermal human neonatal dermal fibroblasts (ScienCell; […] The next day (Day 1), test materials, reference substances [MAP (100 μg/ml), MAP (50 μg/ml) and niacinamide (400 μg/ml, 250 μg/ml and 80 μg/ml, based on PMC7950568 and PMC8622652)] and negative control (H2O) were added, and cell culture was pursued for three additional days, afterward the cell culture conditioned medium was used for type I & IV collagen quantification, while cells were formalin-fixed and type III collagen was measured by direct ELISA. The effect of the test articles on cell numbers was determined using the sulforhodamine B method (Table 3). MAP: magnesium ascorbyl phosphate. All colorimetric measurements were acquired using multi-mode SpectraMax i3x platform (Molecular Devices, San Jose CA) assisted with SoftMax 7.0.3. PRO. 21 software. […] [table]
# [2] = test system: type III collagen output by normal human neonatal dermal fibroblasts; test: Type III collagen, direct ELISA on formalin-fixed cells; type: cell-based; conditions: for effect on type III collagen (in words): tested range
# Method: as §3
# [3] = test system: type IV collagen output by normal human neonatal dermal fibroblasts; test: Type IV collagen output, ELISA of conditioned medium; type: cell-based; conditions: for effect on type IV collagen (in words): tested range
# Method: as §3
# [4] = test system: normal human neonatal dermal fibroblasts; test: Cell numbers, sulforhodamine B method; type: cell-based
# Method: as §3
# [5] = test system: Clostridium collagenase IV (a generic metalloproteinase); test: Metalloproteinase (collagenase) activity assay, Enzchek kit, quenched fluorescent gelatin; type: biochemical
# Method: as §1
# Metalloproteinase activity assay. The activity of the test materials towards collagenase proteolytic activity was examined by adding dilutions of test articles to the Enzchek kit reaction mixture (Molecular Probes/Invitrogen/ThermoFisher). Clostridium collagenase IV (a generic metalloproteinase) was used as the protease and quenched fluorescent gelatin was the substrate. Phenanthroline, a potent collagenase inhibitor was used as positive control at 1000 μM. The kinetics of the release of the digested, fluorescent gelatin were measured at excitation/emission wavelengths of 485/530 nm with the SpectraMax i3x microplate reader. Fluorescence readings were adjusted by subtracting the values in wells containing no collagenase and were expressed in arbitrary fluorescence units and as % of water-treated controls.
# as §2
# T1 sequence (P00772 27-266): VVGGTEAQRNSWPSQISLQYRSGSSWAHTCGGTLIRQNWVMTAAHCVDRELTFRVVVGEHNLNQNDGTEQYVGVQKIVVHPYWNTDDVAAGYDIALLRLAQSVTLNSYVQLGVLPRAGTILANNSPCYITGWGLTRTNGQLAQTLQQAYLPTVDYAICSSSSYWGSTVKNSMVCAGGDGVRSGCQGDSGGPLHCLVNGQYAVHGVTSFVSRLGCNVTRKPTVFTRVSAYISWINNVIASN
compound,measurement,setting,value
COC(=O)CCC(=O)N[C@@H](C)C(=O)N[C@@H](C)C(=O)N1CCC[C@H]1C(=O)N[C@H](C(=O)CCl)C(C)C [El III] (HELM PEPTIDE1{[COC(=O)CCC(=O)[*:2]].A.A.P.V.[ClC[*:1]]}$$$$V2.0),Elastase activity (% Control),"elastase; 1 ug/mL, t = 20 min",9*** % Control
same,suppressive effect on elastase activity (in words),elastase; tested range,nearly complete inhibitory activity
"O=C1O[C@H]([C@@H](O)CO)C([O-])=C1OP(=O)([O-])[O-].O=C1O[C@H]([C@@H](O)CO)C([O-])=C1OP(=O)([O-])[O-].[Mg+2].[Mg+2].[Mg+2] [MAP, magnesium ascorbyl phosphate]",Type I collagen (% Control),[1]; 50 ug/mL,148 % Control
same,Type I collagen (% Control),[1]; 100 ug/mL,166 % Control
same,effect on type I collagen (in words),[1],strong stimulatory response
same,Type III collagen (% Control),[2]; 50 ug/mL,1977 % Control
same,Type III collagen (% Control),[2]; 100 ug/mL,1874 % Control
same,effect on type III collagen (in words),[2],strong stimulatory response
same,Type IV collagen (% Control),[3]; 50 ug/mL,694 % Control
same,Type IV collagen (% Control),[3]; 100 ug/mL,703 % Control
same,effect on type IV collagen (in words),[3],strong stimulatory response
same,Cell Numbers (% Control),[4]; 50 ug/mL,130 % Control
same,Cell Numbers (% Control),[4]; 100 ug/mL,139 % Control
c1cnc2c(c1)ccc1cccnc12 [Phenanthroline],MP activity (% CTR),"[5]; positive control at 1000 μM, t = 20 min",0* % CTR
same,inhibitory effect on collagenase (MP) / generic metalloproteinase activity (in words),[5]; tested range,total inhibitory activity
NC(=O)c1cccnc1 [niacinamide],Type I collagen (% Control),[1]; 80 ug/mL,94 % Control
same,Type I collagen (% Control),[1]; 250 ug/mL,130 % Control
same,Type I collagen (% Control),[1]; 400 ug/mL,130 % Control
same,type I collagen increase / upregulation (description summary),[1]; concentration not given,up to 130%
same,effect on type I collagen (in words),[1],upregulated type I collagen at the two highest tested concentrations
same,Type III collagen (% Control),[2]; 80 ug/mL,106 % Control
same,Type III collagen (% Control),[2]; 250 ug/mL,106 % Control
same,Type III collagen (% Control),[2]; 400 ug/mL,111 % Control
same,effect on type III collagen (in words),[2],no effect
same,Type IV collagen (% Control),[3]; 80 ug/mL,88 % Control
same,Type IV collagen (% Control),[3]; 250 ug/mL,86 % Control
same,Type IV collagen (% Control),[3]; 400 ug/mL,104 % Control
same,effect on type IV collagen (in words),[3],no effect
same,Cell Numbers (% Control),[4]; 80 ug/mL,99 % Control
same,Cell Numbers (% Control),[4]; 250 ug/mL,99 % Control
same,Cell Numbers (% Control),[4]; 400 ug/mL,96 % Control
